The values that follow come from US11535630B2, “Apelin receptor (APJ) agonists and uses thereof” (Research Triangle Institute, priority 2015, dated 2022).

Structures are written as SMILES.

In one test the target is T1, apelin receptor (APJ) (Homo sapiens, UniProt P35414).
T1 sequence (P35414 1-380): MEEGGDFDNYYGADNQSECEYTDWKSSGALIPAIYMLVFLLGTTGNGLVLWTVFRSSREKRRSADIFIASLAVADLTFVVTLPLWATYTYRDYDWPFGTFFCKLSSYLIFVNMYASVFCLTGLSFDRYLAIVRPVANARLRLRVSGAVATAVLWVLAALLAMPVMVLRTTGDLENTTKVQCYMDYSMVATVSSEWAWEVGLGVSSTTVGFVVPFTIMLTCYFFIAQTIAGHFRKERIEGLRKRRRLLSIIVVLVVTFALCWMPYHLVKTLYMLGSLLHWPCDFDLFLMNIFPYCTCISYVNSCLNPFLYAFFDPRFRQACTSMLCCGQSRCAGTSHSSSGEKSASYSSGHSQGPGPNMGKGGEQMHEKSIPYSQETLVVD
The test can be described thus: In vitro apelin agonist activity (methods of Giddings et al., Apelin-13 as positive control). The test is classed as cell-based. The note with it: EC50 (nM) Ave, in vitro apelin agonist activity, methods of Giddings et al., Apelin-13 as positive control. The text has this: Characterization of the Apelin Agonist Activity of the Compounds
1:39-47, the contents of which are hereby incorporated by reference in its entirety. Using the methods described in Giddings et al. and Apelin-13 as a positive control.
Turning to `O=C(O)C[C@H](CCN1CC(F)(F)C(F)(F)C(F)(F)C1)NC(=O)c1cc(-c2ccccc2C(F)(F)F)n(C2CCCC2)n1` [compound 566, (3S)-3-({1-cyclopentyl-5-[2-(trifluoromethyl)phenyl]-1H-pyrazol-3-yl}formamido)-5-(3,3,4,4,5,5-hexafluoropiperidin-1-yl)pentanoic acid], the EC50 (in general, the concentration at which the effect is half-maximal) came out at 3050 nM.

Staying with this test, now noted: in vitro apelin agonist activity, methods of Giddings et al., Apelin-13 as positive control; read-out: EC50 (nM) Ave.
On to `CC(C[C@@H](CC(=O)O)NC(=O)c1cc(-c2ccccc2C(F)(F)F)n(C2CCCC2)n1)N1CCC(F)(F)C1` (stereo partly drawn) [compound 567, (3S)-3-({1-cyclopentyl-5-[2-(trifluoromethyl)phenyl]-1H-pyrazol-3-yl}formamido)-5-(3,3-difluoropyrrolidin-1-yl)hexanoic acid], for which the EC50 was 648 nM.

For the molecule `CC(C)(C)Cn1nc(C(=O)N[C@@H](CCN2CCCC(F)(F)C2)CC(=O)O)cc1-c1ccccc1C(F)(F)F` [compound 568, (3S)-5-(3,3-difluoropiperidin-1-yl)-3-{[1-(2,2-dimethylpropyl)-5-[2-(trifluoromethyl)phenyl]-1H-pyrazol-3-yl]formamido}pentanoic acid], the EC50 was more than 10000 nM.

For the molecule `COCCN(C)C(=O)[C@H](COc1ccccc1)NC(=O)c1cc(-c2ccccc2C(F)(F)F)n(C2CCCC2)n1` [compound 570, (2S)-2-({1-cyclopentyl-5-[2-(trifluoromethyl)phenyl]-1H-pyrazol-3-yl}formamido)-N-(2-methoxyethyl)-N-methyl-3-phenoxypropanamide], the EC50 worked out at 4250 nM. In the case of `O=C(O)C[C@H](CCN1CCCC(F)(F)C1)NC(=O)c1cc(-c2ccccc2C(F)(F)F)n(CC2CCC2)n1` [compound 571, (3S)-3-{[1-(cyclobutylmethyl)-5-[2-(trifluoromethyl)phenyl]-1H-pyrazol-3-yl}formamido}-5-(3,3-difluoropiperidin-1-yl)pentanoic acid], the EC50 turned out to be 130 nM. The same measure, in the same setting: under `C[C@@H](C[C@@H](CC(=O)O)NC(=O)c1cc(-c2ccccc2C(F)(F)F)n(C2CCCC2)n1)N1CCC(F)(F)C1` [compound 572, (3S,5S)-3-({1-cyclopentyl-5-[2-(trifluoromethyl)phenyl]-1H-pyrazol-3-yl}formamido)-5-(3,3-difluoropyrrolidin-1-yl)hexanoic acid] stands 124 nM; under `CC(C[C@@H](CC(=O)NC1CCC1)NC(=O)c1cc(-c2ccccc2C(F)(F)F)n(C2CCCC2)n1)N1CCC(F)(F)C1` (stereo partly drawn) [compound 573, (3S)-N-cyclobutyl-3-({1-cyclopentyl-5-[2-(trifluoromethyl)phenyl]-1H-pyrazol-3-yl}formamido)-5-(3,3-difluoropyrrolidin-1-yl)hexanamide], 299 nM. Same read-out and setting: the result for `O=C(O)C[C@H](CCN1CC(F)(F)C(F)(F)C1)NC(=O)c1cc(-c2ccccc2C(F)(F)F)n(C2CCCC2)n1` [compound 574, (3S)-3-({1-cyclopentyl-5-[2-(trifluoromethyl)phenyl]-1H-pyrazol-3-yl}formamido)-5-(3,3,4,4-tetrafluoropyrrolidin-1-yl)pentanoic acid] reads 981 nM; that for `C[C@H](C[C@@H](CC(=O)O)NC(=O)c1cc(-c2ccccc2C(F)(F)F)n(C2CCCC2)n1)N1CCCC(F)(F)C1` [compound 575, (3S,5R)-3-({1-cyclopentyl-5-[2-(trifluoromethyl)phenyl]-1H-pyrazol-3-yl}formamido)-5-(3,3-difluoropiperidin-1-yl)hexanoic acid], 91 nM. Still for that read-out and setting: the result for `C[C@@H](C[C@@H](CC(=O)O)NC(=O)c1cc(-c2ccccc2C(F)(F)F)n(C2CCCC2)n1)N1CCCC(F)(F)C1` [compound 576, (3S,5S)-3-({1-cyclopentyl-5-[2-(trifluoromethyl)phenyl]-1H-pyrazol-3-yl}formamido)-5-(3,3-difluoropiperidin-1-yl)hexanoic acid] reads 1370 nM; that for `O=C(N[C@@H](CC1CCCCC1)C(=O)O)c1cc(-c2ccccc2C(F)(F)F)n(C2CCCC2)n1` [compound 577, (2S)-3-cyclohexyl-2-({1-cyclopentyl-5-[2-(trifluoromethyl)phenyl]-1H-pyrazol-3-yl}formamido)propanoic acid], 1030 nM; that for `O=C(O)C[C@H](CCN1CCC(C(F)(F)F)C1)NC(=O)c1cc(-c2ccccc2C(F)(F)F)n(C2CCCC2)n1` (stereo partly drawn) [compound 578, (3S)-3-({1-cyclopentyl-5-[2-(trifluoromethyl)phenyl]-1H-pyrazol-3-yl}formamido)-5-[3-(trifluoromethyl)pyrrolidin-1-yl]pentanoic acid], 78 nM. In the case of `O=C(O)C[C@@H](CCN1CCCC(F)(F)C1)NC(=O)c1cc(-c2ccccc2C(F)(F)F)n(C2CCCC2)n1` [compound 579, (3R)-3-({1-cyclopentyl-5-[2-(trifluoromethyl)phenyl]-1H-pyrazol-3-yl}formamido)-5-(3,3-difluoropiperidin-1-yl)pentanoic acid], the EC50 came to 1870 nM. Regarding `CCCn1nc(C(=O)N[C@@H](CCN2CCCC(F)(F)C2)CC(=O)O)cc1-c1ccccc1C(F)(F)F` [compound 580, (3S)-5-(3,3-difluoropiperidin-1-yl)-3-({1-propyl-5-[2-(trifluoromethyl)phenyl]-1H-pyrazol-3-yl}formamido)pentanoic acid], the EC50 turned out to be 718 nM. On the same count and under the same terms, under `O=C(O)C[C@H](CCN1C[C@@H](F)[C@@H](F)C1)NC(=O)c1cc(-c2ccccc2C(F)(F)F)n(C2CCCC2)n1` [compound 581, (3S)-3-({1-cyclopentyl-5-[2-(trifluoromethyl)phenyl]-1H-pyrazol-3-yl}formamido)-5-[(3R,4S)-3,4-difluoropyrrolidin-1-yl]pentanoic acid] stands 215 nM. Take `O=C(O)C[C@H](CCN1C[C@H](F)[C@@H](F)C1)NC(=O)c1cc(-c2ccccc2C(F)(F)F)n(C2CCCC2)n1` [compound 582, (3S)-3-({1-cyclopentyl-5-[2-(trifluoromethyl)phenyl]-1H-pyrazol-3-yl}formamido)-5-[(3S,4S)-3,4-difluoropyrrolidin-1-yl]pentanoic acid]: the EC50 is 109 nM. In the case of `O=C(O)C[C@H](CCN1CCC[C@H](F)C1)NC(=O)c1cc(-c2ccccc2C(F)(F)F)n(C2CCCC2)n1` [compound 583, (3S)-3-({1-cyclopentyl-5-[2-(trifluoromethyl)phenyl]-1H-pyrazol-3-yl}formamido)-5-[(3S)-3-fluoropiperidin-1-yl]pentanoic acid], the EC50 turned out to be 302 nM. On to `O=C(O)C[C@H](CCN1CCC[C@@H](F)C1)NC(=O)c1cc(-c2ccccc2C(F)(F)F)n(C2CCCC2)n1` [compound 584, (3S)-3-({1-cyclopentyl-5-[2-(trifluoromethyl)phenyl]-1H-pyrazol-3-yl}formamido)-5-[(3R)-3-fluoropiperidin-1-yl]pentanoic acid], for which the EC50 was found to be 184 nM. `O=C(O)C[C@H](CCN1CC[C@H](F)C1)NC(=O)c1cc(-c2ccccc2C(F)(F)F)n(C2CCCC2)n1` [compound 585, (3S)-3-({1-cyclopentyl-5-[2-(trifluoromethyl)phenyl]-1H-pyrazol-3-yl}formamido)-5-[(3S)-3-fluoropyrrolidin-1-yl]pentanoic acid]: the EC50 was found to be 654 nM.

Consider `O=C(O)C[C@H](CCN1CCCCC1=O)NC(=O)c1cc(-c2ccccc2C(F)(F)F)n(C2CCCC2)n1` [compound 587, (3S)-3-({1-cyclopentyl-5-[2-(trifluoromethyl)phenyl]-1H-pyrazol-3-yl}formamido)-5-(2-oxopiperidin-1-yl)pentanoic acid], for which the EC50 stood at 355 nM.
